Assay results reported in the NIST ThermoML archive (doi:10.1021/je034084d).
Numbers after ± are expanded uncertainties.

Conditions: for vapor or sublimation pressure: Liquid; for molar volume: Gas, isochoric method

FC(C(F)(F)F)C(F)(F)F [1,1,1,2,3,3,3-heptafluoropropane]
Conditions	vapor or sublimation pressure [kPa]
235.07 K	35.5 ± 1.1
240.23 K	46.5 ± 1.1
245.31 K	59.9 ± 1.1
250.44 K	76.3 ± 1.1
255.11 K	94.1 ± 1.1
260.28 K	117.5 ± 1.1
265.66 K	146.4 ± 1.1
270.55 K	177.2 ± 1.1
275.23 K	211.1 ± 1.1
280.19 K	252.4 ± 1.1
285.44 K	302.4 ± 1.2
290.14 K	353.3 ± 1.2
295.27 K	416.1 ± 1.2
300.24 K	484.6 ± 1.2
305.29 K	562.6 ± 1.3
310.37 K	650.5 ± 1.3
315.41 K	747.3 ± 1.3
320.07 K	845.9 ± 1.4
325.19 K	965.7 ± 1.4
329.97 K	1088.3 ± 1.5
335.04 K	1230.8 ± 1.6
339.99 K	1383 ± 1.6
345.15 K	1556.8 ± 1.7
350.26 K	1744.7 ± 1.8
355.11 K	1939 ± 1.9
360.18 K	2159.7 ± 2
365.27 K	2401.5 ± 2.1

Conditions	molar volume [m3/mol]
293.37 K, 214.8 kPa	0.0106 ± 5e-06
298.02 K, 297.6 kPa	0.007594 ± 3e-06
298.06 K, 219 kPa	0.0106 ± 5e-06
298.58 K, 387 kPa	0.00567 ± 2e-06
303.22 K, 304.1 kPa	0.007596 ± 3e-06
303.42 K, 223.7 kPa	0.0106 ± 5e-06
303.52 K, 484.7 kPa	0.004479 ± 2e-06
303.65 K, 395.8 kPa	0.005671 ± 2e-06
308.37 K, 228 kPa	0.0106 ± 5e-06
308.57 K, 310.7 kPa	0.007598 ± 3e-06
308.57 K, 562.5 kPa	0.003857 ± 2e-06
308.67 K, 496.4 kPa	0.00448 ± 2e-06
308.69 K, 404.7 kPa	0.005672 ± 2e-06
313.63 K, 507.6 kPa	0.004481 ± 2e-06
313.69 K, 413.2 kPa	0.005673 ± 2e-06
314.14 K, 232.7 kPa	0.01061 ± 5e-06
314.16 K, 317.9 kPa	0.0076 ± 3e-06
314.22 K, 577.9 kPa	0.003858 ± 2e-06
318.62 K, 518.9 kPa	0.004482 ± 2e-06
318.66 K, 421.6 kPa	0.005675 ± 2e-06
319.44 K, 237.1 kPa	0.01061 ± 5e-06
319.6 K, 324.5 kPa	0.007601 ± 3e-06
319.97 K, 593.4 kPa	0.003859 ± 2e-06
323.74 K, 530.4 kPa	0.004483 ± 2e-06
323.82 K, 430.2 kPa	0.005676 ± 2e-06
324.15 K, 241.1 kPa	0.01061 ± 5e-06
324.21 K, 329.9 kPa	0.007603 ± 3e-06
324.39 K, 605.1 kPa	0.003859 ± 2e-06
328.01 K, 244.4 kPa	0.01061 ± 5e-06
328.19 K, 334.6 kPa	0.007604 ± 3e-06
328.2 K, 614.9 kPa	0.00386 ± 2e-06
328.46 K, 540.6 kPa	0.004484 ± 2e-06
328.9 K, 438.8 kPa	0.005677 ± 2e-06
333.39 K, 248.8 kPa	0.01062 ± 5e-06
333.4 K, 551.4 kPa	0.004485 ± 2e-06
333.62 K, 341.1 kPa	0.007606 ± 3e-06
333.92 K, 629.9 kPa	0.003861 ± 2e-06
334.02 K, 447.3 kPa	0.005679 ± 2e-06
338.69 K, 642 kPa	0.003862 ± 2e-06
338.92 K, 253.5 kPa	0.01062 ± 5e-06
338.96 K, 347.5 kPa	0.007608 ± 3e-06
338.96 K, 563.3 kPa	0.004486 ± 2e-06
339.15 K, 455.7 kPa	0.00568 ± 2e-06
343.8 K, 257.7 kPa	0.01062 ± 5e-06
343.94 K, 655.2 kPa	0.003863 ± 2e-06
343.99 K, 353.6 kPa	0.00761 ± 3e-06
344.11 K, 574.3 kPa	0.004487 ± 2e-06
344.27 K, 464.1 kPa	0.005681 ± 2e-06
348.97 K, 359.5 kPa	0.007611 ± 3e-06
349.04 K, 261.8 kPa	0.01062 ± 5e-06
349.14 K, 668.4 kPa	0.003864 ± 2e-06
349.17 K, 585 kPa	0.004488 ± 2e-06
349.21 K, 472.1 kPa	0.005682 ± 2e-06
353.32 K, 364.5 kPa	0.007613 ± 3e-06
353.39 K, 679.1 kPa	0.003864 ± 2e-06
353.64 K, 265.6 kPa	0.01063 ± 5e-06
354.39 K, 596 kPa	0.004489 ± 2e-06
354.73 K, 481 kPa	0.005684 ± 2e-06
